Marks after values point to notes of the source that are not given here.
Key:
[1] = biological target: T1, mouse liver low Km ALDH (Mus musculus, UniProt P47738); experiment: In vivo inhibition of mouse liver aldehyde dehydrogenase
T1 construct: Liver aldehyde dehydrogenase was extracted and assayed as previously described; from tissue; host or cells: liver of treated mice
T1 sequence (P47738 20-519): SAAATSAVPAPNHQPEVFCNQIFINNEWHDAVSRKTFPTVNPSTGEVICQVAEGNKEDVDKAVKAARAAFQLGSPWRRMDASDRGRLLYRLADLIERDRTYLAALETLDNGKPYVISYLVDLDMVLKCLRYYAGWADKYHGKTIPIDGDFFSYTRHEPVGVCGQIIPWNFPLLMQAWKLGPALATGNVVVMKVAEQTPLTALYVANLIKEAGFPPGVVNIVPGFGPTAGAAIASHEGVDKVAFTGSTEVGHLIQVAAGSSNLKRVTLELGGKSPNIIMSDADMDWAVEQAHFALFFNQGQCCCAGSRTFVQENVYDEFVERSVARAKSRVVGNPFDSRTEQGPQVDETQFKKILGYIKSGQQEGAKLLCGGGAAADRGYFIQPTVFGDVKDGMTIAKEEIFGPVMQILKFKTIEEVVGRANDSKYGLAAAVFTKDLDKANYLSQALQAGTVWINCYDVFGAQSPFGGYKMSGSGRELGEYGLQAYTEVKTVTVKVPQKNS
Procedure: Reagents—DETC-MeSO was synthesized by the method of Hart and Faiman (B. W. Hart et al., Biochem. Pharmacol.), 43, 403-406 (1992). Carbamoylated glutathione, S-(N,N-diethylcarbamoyl)glutathione (DETC-GS), was prepared essentially as described by Jin et al. (L. Jin, supra). The structures and purity of DETC-MeSO and DETC-GS were confirmed by 300 MHz NMR and FAB-tandem mass spectrometry. A QE300 NMR spectrometer (General Electric, Fremont, Calif.) and Autospec-Q Tandem Hybrid mass spectrometer (Fiscons/VG Analytical Limited, Manchester, England) were employed for these analyses. Liver aldehyde dehydrogenase was extracted and assayed as previously described (B. W. Hart et al., supra). MetSOX monosodium L-glutamate, glycine, glutathione, and NMDA were purchased from Sigma Chemical Company (St. Louis, Mo.). L-[3-^3H]Glutamate (46 Ci/mmol) was obtained from Amerisham Life Science (Buckinghamshire, England).

[2] = system: MetSOX-induced seizures; experiment: MetSOX-induced seizures in mice; format: in vivo
Procedure: Animals—Male Swiss Webster mice (20-30 g) or male Sprague-Dawley rats (250-300 g) were used. All that employed animals were conducted in strict compliance with the NIH guidelines on animal use and institutional regulations concerning animal experimentation. Animals were exposed to hyperbaric oxygen in a specify designed press chamber as previously described (M. D. Faiman et al., Biochem. Pharmacol., 20, 3049-3067 (1971); M. D. Faiman et al. Aerosp. Med.,45, 29032.(1974)). The time to first clonic-tonic seizure after brining animals to a final pressure of five atmospheres of 100% oxygen or after intraperitoneal injection of convulsants was noted by. criteria outlined previously (M. D. Faiman et al. (1971), supra M. D. Faiman et al. (1974), supra). Unless otherwise specified, the ability of DETC-MeSO to prevent seizures was tested by intraperitoneal injection of 5.2 mg/kg of DETC-MeSO 1-2 hours prior to bringing the animal to a final pressure of 5 atmospheres of 100% oxygen or intraperitoneal injection of N-methyl-D-asparate (NMA) (125 mg/kg) r L-methionine sulfoximine (MetSOX) (250 mg/kg). Evaluation of the statistics for whole animal experiments or for changes in brain glutamate binding after administration of DETC-MeSO was conducted by use of the program GraphPAD InStat from Graph PAD Software (San Diego, Calif.).

[3] = system: brain glutamate receptors (synaptic membranes); experiment: Glutamate binding to synaptic membranes isolated from treated mice; format: in vivo, mouse
Procedure: Binding Studies—Synaptic membranes (100 μg protein) were isolated (Y. H. Lee et al., J. Neurosci. Res. 40, 797-806 (1995)) form whole brain homogenate of male Swiss Webster mice and were incubated in 0.1 mM L-glutamate for 30 minutes at 25° C. After addition of 50 nM of [^3H]glutamate, incubation was continued for an additional 45 minutes. Reactions were terminated by centrifugation at 4° C. to separate membrane-bound from free radioactivity. Nonspecific binding (radioactivity bound in the presence of 0.5 mM unlabeled glutamate) averages: 20-30% of total radioactivity bound. The rate (k) and maximum percent blockage of glutamate binding (M) by DETC-MeSO (1) during the incubation time (t) was determined by fitting the equation [% inhibition]=M(1−e^−kh) to these day by use of the program Grafit (Erithicus Software Ltd.). This equation was derived for first-order inactivation by a group specific reagent that gives a partial effect. If “A” is the percent of binding activity that remains after extensive exposure (t=of the receptor to excess DETC-MeSO, then M=100−A)e^−kh+A; substituting (100−M) for “A” and [100−% inhibition] for “a” in this equation gives the one employed for purposes of data analyses. […] A second equation was employed in the analysis of binding data that defines partial, irreversible inactivation of two distinct groups of receptors [% inhibition]=M1(1−e^−k1^IT)+M2(1−e^−k1^IT), where M1 and M2 are the maximum amount of inhibition obtained for complete modification of each receptor population and k1 and k2 are the rate constants for these modifications, respectively.
Synaptic membranes were prepared from the brains of mice injected with DETC-MeSO (5.2 mg/kg, i.p.). The ability of synaptic membrane preparations isolated from DETC-MeSO-treated mice to bind glutamate was compared with similar preparations isolated from control animals. FIG. 3(A) illustrates the results obtained from synaptic membranes prepared from brains of mice killed two hours after a single dose of DETC-MeSO, or two hours after the last injection of multiple consecutive doses (5.2 mg/kg, i.p., daily for seven days). Either single or multiple dosing with DETC-MeSO reduced the capacity of synaptic membranes to bind glutamate by approximately 50%, the maximum effect obtained in vitro (FIG. 3). Each bar represents the average of results obtained from four animals and the error bars are for one standard deviation.

[4] = system: succinic semi-aldehyde dehydrogenase (SSA DH); experiment: In vitro inactivation of succinic semi-aldehyde dehydrogenase; format: biochemical
Procedure: To test whether the protective effect of DETC-MeSO in hyperbaric O2-induced convulsions in mice could be due to inhibition of succinic semi-aldehyde dehydrogenase (SSA DH), mechanistically related to ALDH2, the sensitivity of SSA DH to inactivation by DETC-MeSO was determined. Potentially, inhibition of SSA DH in brain could offset the build up of ammonia known to occur and produce more GABA. In vitro both ALDH2 and SSA DH are inactivated by DETC-MeSO at 47 M-1 s-1 and 300 M-1 s-1, respectively.

- inactivation of ALDH ([1]; 5.2 mg/kg i.p. in mice, in 1 hour): 80%
- effective concentration at its site of action in vivo ([1]; 5.2 mg/kg i.p. in mice, worked out from inactivation rate): about 11 μM
- inhibition at 2.6 mg/kg ([1]; mouse, ip, 2.6 mg/kg i.p., read-out: inhibition of mouse liver enzyme (ALDH)): 84%
- inhibition at 30 µmol/kg ([1]; mouse, 30 μmol/kg intravenous, mice): 44.9 ± 1%
- inactivation rate of SSA DH [4]: 300 M⁻¹ s⁻¹
Compound: CCN(CC)C(=O)[S+](C)[O-] (stereo not drawn) [DETC-MeSO, S-Methyl-N,N-Diethylthiolcarbamate Sulfoxide]
- effect on time free of MetSOX seizures [2]: more than doubled
- mean time to seizure ([2]; MetSOX 250 mg/kg, 5.2 mg/kg i.p. 1-2 hours prior, ± standard error): 307 ± 60 min
- number of animals that exhibited the effect/total number of animals in the group ([2]; MetSOX 250 mg/kg, observation six hours): (6/8)^a
- irreversible brain glutamate receptor blockage ([3]; 30 μmol/kg intravenous, mice): 38.2±1.6%
- reduction of capacity of synaptic membranes to bind glutamate ([3]; 5.2 mg/kg i.p. daily for seven days, killed two hours after last injection): approximately 50%
- inhibition of glutamate binding ([3]; single dose 5.2 mg/kg i.p., killed 24 hours after): less inhibition
- reduction of capacity of synaptic membranes to bind glutamate ([3]; single dose 5.2 mg/kg i.p., killed two hours after): approximately 50%
